Consider 14 molecules from article PMC7016291 (Acta Pharmaceutica Sinica. B, 2019).

Where “and” joins values, the source holds several entries; their conditions need not be identical. Equal values may be shown once. Where only a bound is given, the exact number is not on record here.

Series [1] can be described thus: Kinetic aqueous solubility. To be noted: kinetic from dmso stock.
The nature of series [2]: Cytotoxicity in uninfected MT-4 cells. It is filed as cell-based. To be noted: human, uninfected MT-4 cells.
The subject of series [3] is HIV-1 E138K. Kind of series: Anti-HIV-1 activity against mutant strain E138K in MT-4 cells. To be noted: Human immunodeficiency virus 1, MT4, read-out: EC50 E138K. The format is cell-based.
Series [4] concerns HIV-1 F227L + V106A. Put plainly: Anti-HIV-1 activity against double mutant F227L + V106A in MT-4 cells. It is filed as cell-based. To be noted: Human immunodeficiency virus 1, MT4, read-out: EC50 F227L + V106A.
Series [5] deals with HIV-1 RES056 (K103N/Y181C). Put plainly: Anti-HIV-1 activity against double mutant RES056 in MT-4 cells. The format is cell-based. To be noted: Human immunodeficiency virus 1, MT4, read-out: EC50 RES056.
In series [6] the target is HIV-1 RT RNase H (Human immunodeficiency virus type 1 group M subtype B, UniProt P03366). Kind of series: HIV-1 RT RNase H inhibition. The format is biochemical.
Series [7] deals with HIV-1 K103N. Kind of series: Anti-HIV-1 activity against mutant strain K103N in MT-4 cells. It is filed as cell-based. The settings on record: Human immunodeficiency virus 1, MT4, read-out: EC50 K103N.
The test system of series [8] is HIV-2 (ROD). Kind of series: Anti-HIV activity in MT-4 cells. The format is cell-based. To be noted: Human immunodeficiency virus 2, MT4, read-out: EC50 ROD.
The subject of series [9] is HIV-1 Y188L. Kind of series: Anti-HIV-1 activity against mutant strain Y188L in MT-4 cells. To be noted: Human immunodeficiency virus 1, MT4, read-out: EC50 Y188L. The format is cell-based.
The subject of series [10] is HIV-1 Y181C. Kind of series: Anti-HIV-1 activity against mutant strain Y181C in MT-4 cells. The format is cell-based. To be noted: Human immunodeficiency virus 1, MT4, read-out: EC50 Y181C.
Series [11] addresses WT HIV-1 RT (Human immunodeficiency virus type 1 group M subtype B, UniProt P03366). Kind of series: HIV-1 RT inhibition assay. The format is biochemical.
Series [12] deals with HIV-1 L100I. Put plainly: Anti-HIV-1 activity against mutant strain L100I in MT-4 cells. To be noted: Human immunodeficiency virus 1, MT4, read-out: EC50 L100I. The format is cell-based.
The mark [13] stands for this setting: aqueous solution at pH 2.0, pH 2, aqueous buffer.
Setting [14] is: aqueous solution at pH 7.0, pH 7, aqueous buffer.
[15] abbreviates: aqueous solution at pH 7.4, pH 7.4, aqueous buffer.

By solubility (kinetic) is commonly meant the concentration staying in solution when a stock, usually in DMSO, is diluted into the medium. The CC50 is the concentration at which the toxic effect on the cells reaches its halfway point. A low value points to harm at low concentration. As usually defined, the EC50 is the concentration needed to bring the measured effect to its halfway point. For orientation: IC50 means the concentration that gives 50% inhibition. A low value points to greater potency. With `Cc1cc(-c2ccc(C#N)cc2)cc(C)c1Oc1nc(Nc2ccc(C#N)cc2)nc(N2CCC(O)C2)n1` (stereo not shown) [Compound 5h, 4ʹ-((4-((4-Cyanophenyl)amino)-6-(3-hydroxypyrrolidin-1-yl)-1,3,5-triazin-2-yl)-oxy)-3ʹ,5ʹ-dimethyl-[1,1ʹ-biphenyl]-4-carbonitrile], the solubility (kinetic) is 14.7 µg/mL and 29.2 µM in series [1] (FaSSIF); 3.45 µg/mL and 6.85 µM in [1] (setting [13]); < 0.786 µg/mL and < 1.56 µM in series [1] (setting [14]); < 0.786 µg/mL and < 1.56 µM in series [1] (setting [15]). This molecule gave a CC50 at 4 days in series [2] of 5.72 ± 0.08 µM. In addition, the EC50 amounted to 0.0065 ± 0.0006 µM in series [3]; 0.93 ± 0.11 µM in series [4]; 0.19 ± 0.05 µM in series [5]; 0.0036 ± 0.0009 µM in [7]; 2.91 ± 0.98 µM in [8]; 0.023 ± 0.006 µM in series [9]. The EC50 in [10] was found to be 0.0092 ± 0.0008 µM; in series [12], 0.0082 ± 0.0022 µM. Besides, the IC50 in series [6] is more than 828 µM; in series [11] it was 0.161 µM. The “activity against RNase H” value in series [6] is recorded as “slight activity”.

Molecule `Cc1cc(-c2ccc(C#N)cc2)cc(C)c1Nc1nc(Nc2ccc(C#N)cc2)nc(NC2CC2)n1` [Compound 6a, 4ʹ-((4-((4-Cyanophenyl)amino)-6-(cyclopropylamino)-1,3,5-triazin-2-yl)amino)-3ʹ,5ʹ-dimethyl-[1,1ʹ-biphenyl]-4-carbonitrile] displayed a half-maximal cytotoxic concentration (CC50) at 4 days in [2] of more than 125 µM. In addition, the figures for the 50% inhibitory concentration (IC50) in series [6] and in series [11] were more than 1270 µM and 0.0741 µM, respectively. In addition, the half-maximal effective concentration (EC50) in [8] worked out at 26.5 µM.

For the molecule `Cc1cc(-c2ccc(C#N)cc2)cc(C)c1Nc1nc(Nc2ccc(C#N)cc2)nc(NC2CCOCC2)n1` [Compound 6c, 4ʹ-((4-((4-Cyanophenyl)amino)-6-((tetrahydro-2H-pyran-4-yl)amino)-1,3,5-triazin-2-yl)amino)-3ʹ,5ʹ-dimethyl-[1,1ʹ-biphenyl]-4-carbonitrile], the CC50 at 4 days in series [2] was more than 125 µM. In addition, the IC50 is more than 1160 µM in [6] and 0.246 µM in series [11]. Moreover, in series [8], the concentration giving a half-maximal response (EC50) amounted to 40 µM.

`Cc1cc(-c2ccc(C#N)cc2)cc(C)c1Nc1nc(NCC2CCOCC2)nc(Nc2ccc(C#N)cc2)n1` [Compound 6d, 4ʹ-((4-((4-Cyanophenyl)amino)-6-(((tetrahydro-2H-pyran-4-yl)methyl)amino)-1,3,5-triazin-2-yl)amino)-3ʹ,5ʹ-dimethyl-[1,1ʹ-biphenyl]-4-carbonitrile] yielded a CC50 at 4 days in series [2] of more than 125 µM. Also, the half-maximal inhibitory concentration (IC50) in series [6] was more than 1130 µM; in series [11], 0.241 µM. For the same molecule, the concentration for a half-maximal effect (EC50) in [8] was found to be 13.8 µM.

In the case of `Cc1cc(-c2ccc(C#N)cc2)cc(C)c1Nc1nc(NCC2CCOC2)nc(Nc2ccc(C#N)cc2)n1` (stereo not shown) [Compound 6e, 4ʹ-((4-((4-Cyanophenyl)amino)-6-(((tetrahydrofuran-3-yl)methyl)amino)-1,3,5-triazin-2-yl)amino)-3ʹ,5ʹ-dimethyl-[1,1ʹ-biphenyl]-4-carbonitrile], the kinetic solubility is 60.5 µg/mL and 117 µM in series [1] (FaSSIF); 12.1 µg/mL and 23.4 µM in series [1] (setting [13]); < 0.806 µg/mL and < 1.56 µM in series [1] (setting [14]); < 0.806 µg/mL and < 1.56 µM in series [1] (setting [15]). This molecule gave a CC50 at 4 days in series [2] of more than 125 µM. The EC50 was 0.0053 ± 0.0033 µM in series [3]; not below 16.4 µM in series [4]; 0.06 ± 0.007 µM in [5]; 0.0034 ± 0.0005 µM in [7]; 7.91 ± 5.7 µM in [8]; 0.05 ± 0.008 µM in series [9]. Besides, the EC50 was determined as 0.011 ± 0.001 µM in [10] and 0.022 ± 0.006 µM in series [12]. Also, the half-inhibitory concentration (IC50) in series [6] is more than 1160 µM; in series [11], 0.106 µM.

Consider `COC(=O)[C@@H]1CCCN1c1nc(Nc2ccc(C#N)cc2)nc(Nc2c(C)cc(-c3ccc(C#N)cc3)cc2C)n1` [Compound 6f, Methyl (4-((4ʹ-cyano-3,5-dimethyl-[1,1ʹ-biphenyl]-4-yl)amino)-6-((4-cyanophenyl)amino)-1,3,5-triazin-2-yl)-L-prolinate], for which the CC50 at 4 days in series [2] is more than 125 µM. The IC50 is more than 1100 µM in [6] and 0.253 µM in series [11]. Moreover, in series [8], the half-maximal effective concentration (EC50) was more than 125 µM.

With `Cc1cc(-c2ccc(C#N)cc2)cc(C)c1Nc1nc(Nc2ccc(C#N)cc2)nc(N2CCOCC2)n1` [Compound 6g, 4ʹ-((4-((4-Cyanophenyl)amino)-6-morpholino-1,3,5-triazin-2-yl)amino)-3ʹ,5ʹ-dimethyl-[1,1ʹ-biphenyl]-4-carbonitrile], in series [2], the CC50 at 4 days was more than 125 µM. Also, the IC50 in series [6] was more than 1190 µM; in series [11], 0.137 µM. For the same molecule, the EC50 in series [8] was 39.9 µM.

Molecule `Cc1cc(-c2ccc(C#N)cc2)cc(C)c1Nc1nc(Nc2ccc(C#N)cc2)nc(N2CCNCC2)n1` [Compound 6h, 4ʹ-((4-((4-Cyanophenyl)amino)-6-(piperazin-1-yl)-1,3,5-triazin-2-yl)amino)-3ʹ,5ʹ-dimethyl-[1,1ʹ-biphenyl]-4-carbonitrile] came in with a cytotoxic concentration (CC50) at 4 days in series [2] of 9.24 ± 5.5 µM. The 50% inhibitory concentration (IC50) in [6] was more than 1200 µM; in series [11], 0.341 µM. Besides, the concentration for a half-maximal effect (EC50) in [8] was more than 9.24 µM.

As to `Cc1cc(-c2ccc(C#N)cc2)cc(C)c1Nc1nc(Nc2ccc(C#N)cc2)nc(N2CCN(C)CC2)n1` [Compound 6i, 4ʹ-((4-((4-Cyanophenyl)amino)-6-(4-methylpiperazin-1-yl)-1,3,5-triazin-2-yl)amino)-3ʹ,5ʹ-dimethyl-[1,1ʹ-biphenyl]-4-carbonitrile], the kinetic solubility is 60.6 µg/mL and 117 µM in [1] (FaSSIF); 77.3 µg/mL and 150 µM in series [1] (setting [13]); < 0.804 µg/mL and < 1.56 µM in [1] (setting [14]); < 0.804 µg/mL and < 1.56 µM in [1] (setting [15]). In series [2], the half-maximal cytotoxic concentration (CC50) at 4 days was 3.69 ± 2.98 µM. Also, the EC50 is 0.01 ± 0.002 µM in series [3]; not below 3.69 µM in series [4]; 0.35 ± 0.08 µM in series [5]; 0.0074 ± 0.0021 µM in [7]; more than 3.69 µM in series [8]; 0.067 ± 0.016 µM in series [9]. Moreover, the values for the half-maximal effective concentration (EC50) in series [10] and in series [12] were 0.017 ± 0.005 µM and 0.029 µM, respectively. In addition, the IC50 was more than 1160 µM in [6] and 0.227 µM in [11].

`Cc1cc(-c2ccc(C#N)cc2)cc(C)c1Nc1nc(Nc2ccc(C#N)cc2)nc(N2CCCC2CO)n1` (stereo not shown) [Compound 6j, 4ʹ-((4-((4-Cyanophenyl)amino)-6-(2-(hydroxymethyl)pyrrolidin-1-yl)-1,3,5-triazin-2-yl)amino)-3ʹ,5ʹ-dimethyl-[1,1ʹ-biphenyl]-4-carbonitrile] yielded a CC50 at 4 days in series [2] of 62.9 ± 7.99 µM. Moreover, the IC50 is more than 1160 µM in [6] and 0.157 µM in series [11]. The EC50 in series [8] came to 15.7 µM.

`Cc1cc(-c2ccc(C#N)cc2)cc(C)c1Nc1nc(Nc2ccc(C#N)cc2)nc(N2CCC(O)CC2)n1` [Compound 6l, 4ʹ-((4-((4-Cyanophenyl)amino)-6-(4-hydroxypiperidin-1-yl)-1,3,5-triazin-2-yl)-amino)-3ʹ,5ʹ-dimethyl-[1,1ʹ-biphenyl]-4-carbonitrile] registered a CC50 at 4 days in [2] of 5.71 ± 3.93 µM. Besides, the figures for the IC50 in series [6] and in series [11] were more than 1160 µM and 0.223 µM, respectively. Moreover, the EC50 in series [8] was more than 5.71 µM.

On to `Cc1cc(-c2ccc(C#N)cc2)cc(C)c1Nc1nc(NCCN2CCOCC2)nc(Nc2ccc(C#N)cc2)n1` [Compound 6m, 4ʹ-((4-((4-Cyanophenyl)amino)-6-((2-morpholinoethyl)amino)-1,3,5-triazin-2-yl)-amino)-3ʹ,5ʹ-dimethyl-[1,1ʹ-biphenyl]-4-carbonitrile], for which the CC50 at 4 days in series [2] worked out at 13.9 ± 10.7 µM. The IC50 in series [6] was more than 995 µM; in series [11] it was 0.176 µM. Further, in series [8], the EC50 is more than 13.9 µM.

Molecule `Cc1cc(-c2ccc(C#N)cc2)cc(C)c1Nc1nc(NCCN2CCN(C)CC2)nc(Nc2ccc(C#N)cc2)n1` [Compound 6n, 4ʹ-((4-((4-Cyanophenyl)amino)-6-((2-(4-methylpiperazin-1-yl)ethyl)amino)-1,3,5-triazin-2-yl)amino)-3ʹ,5ʹ-dimethyl-[1,1ʹ-biphenyl]-4-carbonitrile] came in with a CC50 at 4 days in series [2] of 2.34 ± 0.64 µM. The IC50 in series [6] is more than 1070 µM; in series [11] it was 0.156 µM. In series [8], the EC50 was more than 2.34 µM.

The molecule `Cc1ccnc2c1NC(=O)c1cccnc1N2C1CC1` [NVP, nevirapine, reference compound] yielded a CC50 at 4 days in [2] of more than 4 µg/mL. Also, the half-maximal effective concentration (EC50) in [3] is 0.057 ± 0.006 µM; in series [4], more than 4 µM; in series [5], more than 4 µM; in series [7] it was 3.19 ± 3.9 µM; in series [9], more than 4 µM; in series [10] it was more than 4 µM. In addition, the half-maximal effective concentration (EC50) in series [12] stood at 0.46 ± 0.11 µM.
